Measured values from PubChem BioAssay (NCI).
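Five concentrations, 48 hours, 96-well plates. The concentration for 50% growth inhibition is given as GI50. TGI: total growth inhibition.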

Key:
Assay in all cases: DTP human tumour cell line panel, 48 h
EKVX NSCLC = test system: EKVX NSCLC
RXF 393 renal = test system: RXF 393 renal
OVCAR-5 ovarian = test system: OVCAR-5 ovarian
U251 CNS = test system: U251 CNS
SN12C renal = test system: SN12C renal
RPMI-8226 leukemia = test system: RPMI-8226 leukemia
DU-145 prostate = test system: DU-145 prostate
NCI-H23 lung = test system: NCI-H23 lung
BT-549 breast = test system: BT-549 breast
COLO 205 colon = test system: COLO 205 colon
MALME-3M melanoma = test system: MALME-3M melanoma
SR leukemia = test system: SR leukemia

| SMILES | TGI (EKVX NSCLC) | TGI (RXF 393 renal) | TGI (OVCAR-5 ovarian) | TGI (U251 CNS) | TGI (SN12C renal) | TGI (RPMI-8226 leukemia) | TGI (DU-145 prostate) | TGI (NCI-H23 lung) | TGI (BT-549 breast) | TGI (COLO 205 colon) | TGI (MALME-3M melanoma) | TGI (SR leukemia) | GI50 (DU-145 prostate) | GI50 (BT-549 breast) |
| --- | --- | --- | --- | --- | --- | --- | --- | --- | --- | --- | --- | --- | --- | --- |
| Cc1ccc(S(=O)(=O)N2CCSCCN(S(=O)(=O)c3ccc(C)cc3)CCN(S(=O)(=O)c3ccc(C)cc3)CC2)cc1 | > 100 µM | > 100 µM | > 100 µM | 90.1 µM | > 100 µM | > 100 µM | > 100 µM | > 100 µM | 70.5 µM | > 100 µM | – | – | – | – |
| CCc1c(Cc2[nH]c(Cc3[nH]c(C=O)c(C)c3CC)c(CC)c2CC)[nH]c(C=O)c1C | > 100 µM | > 100 µM | – | > 100 µM | > 100 µM | > 100 µM | – | > 1 µM | – | > 100 µM | > 100 µM | > 100 µM | – | – |
| [O-][n+]1ccccc1S | > 100 µM | 8.33 µM | > 100 µM | > 100 µM | > 100 µM | 6.47 µM | 46.8 µM | > 100 µM | > 100 µM | 1.7 µM | 89.1 µM | – | 3.48 µM | 27.1 µM |
| C=C(C)[C@H]1C=C[C@@H](OC(=O)c2cccnc2)[C@@]23CO[C@@](C)([C@H](OC(=O)c4cccnc4)[C@@]4(OC(C)=O)C[C@H](C)[C@H](OCCC)[C@@H]4[C@H]2OC(C)=O)[C@H]13 | > 15 µM | > 15 µM | > 15 µM | > 15 µM | > 15 µM | > 15 µM | > 15 µM | > 15 µM | > 15 µM | > 15 µM | – | > 15 µM | – | – |
| CC(C)(C)Nc1noc(=O)n1C(C)(C)C | > 100 µM | > 100 µM | > 100 µM | > 100 µM | > 100 µM | > 100 µM | > 100 µM | > 100 µM | – | > 100 µM | > 100 µM | > 100 µM | – | – |
| O=C(CSc1nc2[nH]ncc2c(=O)[nH]1)c1ccc(Cl)cc1 | > 100 µM | > 100 µM | > 100 µM | > 100 µM | > 100 µM | > 100 µM | – | > 100 µM | > 100 µM | > 100 µM | > 100 µM | > 100 µM | – | – |
| O=C1NC(=O)C2(CCCCCC2)N1 | > 100 µM | > 100 µM | > 100 µM | > 100 µM | > 100 µM | > 100 µM | > 100 µM | > 100 µM | > 100 µM | > 100 µM | > 100 µM | – | – | – |
| CCc1n[nH]c(=O)n1/N=C/c1ccc(C)cc1 | > 100 µM | > 100 µM | > 100 µM | > 100 µM | > 100 µM | > 100 µM | > 100 µM | > 100 µM | > 100 µM | > 100 µM | > 100 µM | – | – | – |
| Oc1ccc(N=C2CCC(=C(c3ccccc3)c3ccc(Nc4ccc(O)cc4)cc3)CC2)cc1 | – | > 100 µM | > 100 µM | > 100 µM | > 100 µM | > 100 µM | > 100 µM | > 100 µM | – | > 100 µM | – | > 100 µM | – | – |
| CCCCC(Sc1cc(Cl)c(C)cc1S(=O)(=O)Nc1n[nH]c(N)n1)C(=O)OC (centres undefined) | > 10 µM | > 10 µM | > 10 µM | > 10 µM | > 10 µM | > 10 µM | > 10 µM | > 10 µM | > 10 µM | > 10 µM | > 10 µM | – | – | – |
| C[n+]1c(-c2ccc(/C=N/NC(=O)C(=O)N/N=C/c3ccc(-c4cn5ccsc5[n+]4C)cc3)cc2)cn2ccsc21 | > 100 µM | – | > 100 µM | > 100 µM | > 100 µM | > 100 µM | – | – | – | > 100 µM | – | > 100 µM | – | – |
| CC1=CC[C@@]2(CO)[C@@H]([C@@H]1C)[C@H]1CC[C@@H]3[C@@]4(C)CC[C@H](O)C(C)(C)[C@@H]4CC[C@@]3(C)[C@]1(C)C[C@@H]2O | > 100 µM | 25.7 µM | > 100 µM | 46.7 µM | > 100 µM | – | > 100 µM | 46.4 µM | 59.2 µM | 50.2 µM | 72.8 µM | – | – | – |
| Cc1nc2c(=O)n(-c3ccccc3)c3ccccc3c2o1 | > 100 µM | > 100 µM | > 100 µM | > 100 µM | > 100 µM | > 100 µM | > 100 µM | > 100 µM | > 100 µM | > 100 µM | > 100 µM | – | – | – |
| CC(=O)OC1CCCn2c1nc1c2C(=O)C(C)=C(N2CC2)C1=O (centres undefined) | 1.9 µM | 0.768 µM | 1.32 µM | 0.533 µM | 1.5 µM | 14.2 µM | – | 0.373 µM | – | 1.2 µM | 0.47 µM | > 100 µM | – | – |
| N#C/C(C(=O)Nc1ccc(Cl)cc1)=C(/N)N1CCCCC1 | > 100 µM | – | > 100 µM | > 100 µM | > 100 µM | > 100 µM | > 100 µM | > 100 µM | > 100 µM | > 100 µM | – | > 100 µM | – | – |
| COc1ccc(OCc2ccc3nc(-c4ccccc4)c(Cl)nc3c2)cc1 | > 100 µM | – | > 100 µM | 31.6 µM | > 100 µM | > 100 µM | > 100 µM | 67.9 µM | – | 81.5 µM | 37.3 µM | > 100 µM | – | – |
| C=C[C@@H]1C[C@]2(C(=O)OC)Cc3nc4ccccc4nc3CC(C(=O)OC)=C2O1 | > 100 µM | > 100 µM | > 100 µM | > 100 µM | > 100 µM | > 100 µM | > 100 µM | > 100 µM | > 100 µM | > 100 µM | > 100 µM | – | – | – |
| CC1CC[C@@]2(OC1)OC1CC3C4CCC5C[C@@H](OC6OC(CO)C(OC7OC(CO)C(O)C(OC8OC(CO)C(O)C(OC9OC(CO)C(O)C(O)C9O)C8O)C7OC7OC(CO)C(O)C(O)C7O)C(O)C6O)[C@H](O)C[C@]5(C)C4CC[C@]3(C)C1[C@@H]2C (some centres undefined) | > 80.5 µM | > 80.5 µM | > 80.5 µM | > 80.5 µM | > 80.5 µM | – | > 80.5 µM | > 80.5 µM | > 80.5 µM | > 80.5 µM | > 80.5 µM | – | – | – |
| C1=C(c2ccccc2)Nc2nnnn2C1c1ccccc1 (centres undefined) | – | 51.1 µM | > 100 µM | 52 µM | > 100 µM | – | 72.5 µM | > 100 µM | – | > 100 µM | – | 51.3 µM | – | – |
